Like-named read-outs stand apart in the source and are kept apart here.

This test addresses T1, Human GLP-1 receptor (Homo sapiens, UniProt P43220).
T1 construct: expressed in transfected cells
As to the kind of experiment: Measurement of GLP-1 receptor agonist activity (cAMP assay). It counts as cell-based. As to the method:
Test Example 1: (Measurement of GLP-1 Receptor Agonist Activity)
Human GLP-1 receptor stably expressing cells (hGLP-1R/CHO-K1 cells) are cultured in an α-MEM medium (Sigma) containing 10% FBS (Hyclone), 2% GlutaMAX (Gibco), 1% G418 (Nacalai Tesque), and 1% Penicillin-Streptomycin Mixed Solution (Sigma) at 37° C. under 5% CO2 conditions, and recovered by treating a 10 fold diluted 5.0 g/l-trypsin/5.3 mmol/l-EDTA solution (Nacalai Tesque) and cryopreserved.
A DMSO solution containing the compound of the present invention or human GLP-1 (7-36) (Phoenix Pharmaceuticals) is dispensed into a 384-well microplate (Greiner) at 62.5 nL/well, and in addition, 400 μM Forskolin (Nacalai Tesque) is dispensed therein at 7.5 nL/well. Subsequently, the frozen GLP-1 R/CHO-K1 cells are thawed in a thermostatic bath at 37° C., suspended in HBSS buffer (GIBCO) containing 0.1% BSA (Sigma), 20 mM HEPES (GIBCO), 0.1 mM IBMX (Sigma), and 0.2 mM RO20-1724 (Calbiochem) at 2×10^4 cells/mL, and the cell suspension is added at 6 μL/well. The solution was incubated at 37° C. for 1 hour and intracellular cAMP concentration is measured using cAMP Gs dynamic kit (Cisbio) according to the protocol attached to the product. Specifically, cAMP-d2 and Anti-cAMP-Cryptate are each added in an amount of 3 μL/well, the mixture is incubated at room temperature for 1 hour, and time-resolved fluorescence is measured using PHERAstar (BMG Labtech).
The dilution concentration or the dilution solvent are changed as necessary.
The compounds of the present invention were tested essentially as described above.
On the technique in general: Cyclic AMP is a second messenger, typically raised through Gs and lowered through Gi signalling.

Setting [1] is: CHO-K1, hGLP-1R/CHO-K1 cells, cAMP, 100% = human GLP-1 (7-36) at 2 nM, 0% = DMSO only, read-out: Emax(%).
Setting [2] is: hGLP-1R/CHO-K1 cells, cAMP increase, 37° C. 1 hour.

T1 sequence (P43220 24-463): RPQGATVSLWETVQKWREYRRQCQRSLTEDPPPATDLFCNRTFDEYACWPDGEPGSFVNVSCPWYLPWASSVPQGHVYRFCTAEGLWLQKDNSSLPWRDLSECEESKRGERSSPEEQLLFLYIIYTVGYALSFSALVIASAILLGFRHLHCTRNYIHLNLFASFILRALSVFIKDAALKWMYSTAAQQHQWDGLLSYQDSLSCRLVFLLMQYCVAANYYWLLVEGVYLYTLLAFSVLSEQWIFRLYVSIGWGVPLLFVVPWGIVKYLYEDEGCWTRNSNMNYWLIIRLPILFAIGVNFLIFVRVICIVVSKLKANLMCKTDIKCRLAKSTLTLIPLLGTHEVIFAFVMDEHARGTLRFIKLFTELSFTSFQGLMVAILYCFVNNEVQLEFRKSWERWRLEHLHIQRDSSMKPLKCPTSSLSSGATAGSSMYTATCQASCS

Turning to `CC(c1nc2ccc(C(=O)O)cc2n1C[C@@H]1CCO1)N1CCc2cc(C(F)(F)F)c(OCc3ccc(Cl)cc3F)cc2C1` (mixture of isomers) [Compound I-032], the Emax (as a rule, the maximal effect, on the per cent scale that the assay sets) under setting [1] came to 146%. Also, the EC50 (as a rule, the concentration at which the effect is half-maximal) under setting [2] stood at 92.7 nM.

Consider `CCC1c2cc(OCc3ccc(Cl)cc3F)c(C(F)(F)F)cc2CCN1Cc1nc2ccc(C(=O)O)cc2n1C[C@@H]1CCO1` (mixture of isomers) [Compound I-044], for which the Emax under setting [1] was 103%. Also, under setting [2], a half-maximal effect (EC50) was put at 9.98 nM.

As for `O=C(O)c1ccc2nc(CN3CCc4cc(C(F)(F)F)c(OCc5ccc(Cl)cc5F)cc4C3C(F)F)n(C[C@@H]3CCO3)c2c1` (mixture of isomers) [Compound I-066], the Emax under setting [1] amounted to 124%. Under setting [2], the EC50 came to 8.72 nM.

Consider `O=C(O)c1ccc2nc(CN3CCc4cc(C(F)(F)F)c(OCc5ccc(Cl)cc5F)cc4C3CF)n(C[C@@H]3CCO3)c2c1` (mixture of isomers) [Compound I-133], for which the Emax under setting [1] turned out to be 112%. In addition, the EC50 under setting [2] was 4.5 nM.

As to `Cc1cc2c(cc1OCc1ccc(Cl)cc1F)CN(Cc1nc3ccc(C(=O)O)cc3n1C[C@@H]1CCO1)CC2` [Compound I-001], the Emax under setting [1] stood at 75%. In addition, the EC50 under setting [2] stood at 47.5 nM.

`CCn1cncc1Cn1c(CN2CCc3cc(C)c(OCc4ccc(Cl)cc4F)cc3C2)nc2ccc(C(=O)O)cc21` [Compound I-002]: the Emax under setting [1] is 92.2%. The molecule further had an EC50 under setting [2] of 43.3 nM.

In the case of `Cc1cc2c(cc1OCc1ccc(Cl)cc1F)C(=O)N(Cc1nc3ccc(C(=O)O)cc3n1C[C@@H]1CCO1)CC2` [Compound I-004], under setting [1], the Emax turned out to be 75.3%. Also, the EC50 under setting [2] amounted to 43.9 nM.

As to `Cc1cc2ccc(Cc3nc4ccc(C(=O)O)cc4n3C[C@@H]3CCO3)cc2nc1OCc1ccc(Cl)cc1F` [Compound I-006], the Emax under setting [1] was determined as 86%.

`O=C(O)c1ccc2nc(CN3CCc4cc(Br)c(OCc5ccc(Cl)cc5F)cc4C3)n(C[C@@H]3CCO3)c2c1` [Compound I-007]: the Emax under setting [1] was found to be 75.7%. Also, the EC50 under setting [2] is 19.8 nM.

For the molecule `N#Cc1cc2c(cc1OCc1ccc(Cl)cc1F)CN(Cc1nc3ccc(C(=O)O)cc3n1C[C@@H]1CCO1)CC2` [Compound I-008], the Emax under setting [1] was determined as 84.3%.

Consider `Cc1cc2c(cc1OCc1ccc(Cl)cc1F)CN(Cc1nc3ccc(C(=O)O)nc3n1C[C@@H]1CCO1)CC2` [Compound I-009], for which, under setting [1], the Emax stood at 81.3%. The molecule also displayed an EC50 under setting [2] of 27.3 nM.

Take `Cc1cc2c(cc1OCc1ccc(Cl)cc1F)C(=O)N(Cc1nc3ccc(C(=O)O)nc3n1C[C@@H]1CCO1)CC2` [Compound I-011]: the Emax under setting [1] was 92.7%. Further, the EC50 under setting [2] came out at 70.8 nM.

With `Cc1cc2c(cc1OCc1ccc(C(F)(F)F)cn1)CN(Cc1nc3ccc(C(=O)O)cc3n1C[C@@H]1CCO1)CC2` [Compound I-015], the Emax under setting [1] worked out at 81.3%. The molecule further showed an EC50 under setting [2] of 74.3 nM.

Consider `Cc1cc2c(cc1OCc1ccc(Cl)cc1)CN(Cc1nc3ccc(C(=O)O)cc3n1C[C@@H]1CCO1)CC2` [Compound I-016], for which the Emax under setting [1] came to 79%. Further, the EC50 under setting [2] was 50.3 nM.

Consider `Cc1cc2c(cc1OCc1ccc(C(F)(F)F)cc1F)CN(Cc1nc3ccc(C(=O)O)cc3n1C[C@@H]1CCO1)CC2` [Compound I-020], for which, under setting [1], the Emax was 89%. Besides, under setting [2], the EC50 was determined as 75.8 nM.

For the molecule `O=C(O)c1ccc2nc(CN3CCc4cc(Cl)c(OCc5ccc(Cl)cc5F)cc4C3)n(C[C@@H]3CCO3)c2c1` [Compound I-022], under setting [1], the Emax is 92.3%. The molecule further came in with an EC50 under setting [2] of 15 nM.

Consider `O=C(O)c1ccc2nc(CN3CCc4cc(C(F)(F)F)c(OCc5ccc(Cl)cc5F)cc4C3)n(C[C@@H]3CCO3)c2c1` [Compound I-023], for which the Emax under setting [1] was 86%. The EC50 under setting [2] was found to be 4.56 nM.

`O=C(O)c1ccc2nc(CN3CCc4cc(Cl)c(OCc5ccc(Cl)cc5F)cc4C3)n(C[C@@H]3CCO3)c2n1` [Compound I-024]: the Emax under setting [1] worked out at 92.7%. Under setting [2], this molecule gave an EC50 of 26.4 nM.

For `CC1c2cc(OCc3ccc(Cl)cc3F)ccc2CCN1Cc1nc2ccc(C(=O)O)cc2n1C[C@@H]1CCO1` (some centres unmarked) [Compound I-025], the Emax (CHO-K1, maximum effect, cAMP increase in GLP-1 R/CHO-K1 cells, 2 nM human GLP-1 (7-36) = 100%, DMSO only = 0%, read-out: Emax) came out at 78.7%. Also, the half-maximal effective concentration (EC50) (cAMP increase in GLP-1 R/CHO-K1 cells, 2 nM human GLP-1 (7-36) = 100%, DMSO only = 0%) is 109 nM.

Regarding `O=C(O)c1ccc2nc(CN3CCc4cc(C(F)(F)F)c(OCc5ccc(Cl)cc5F)cc4C3)n(C[C@@H]3CCO3)c2n1` [Compound I-026], under setting [1], the Emax is 85%. Under setting [2], this molecule displayed an EC50 of 6.35 nM.

For `O=C(O)c1ccc2nc(CN3CCc4cc(C(F)F)c(OCc5ccc(Cl)cc5F)cc4C3)n(C[C@@H]3CCO3)c2c1` [Compound I-027], under setting [1], the Emax was found to be 80%. Also, under setting [2], a half-maximal effect (EC50) was put at 9.48 nM.

As for `Cc1cc2c(cc1OCc1ccc(Cl)cc1F)CN(Cc1nc3ncc(C(=O)O)cc3n1C[C@@H]1CCO1)CC2` [Compound I-028], under setting [1], the Emax is 84%. Besides, under setting [2], the 50% effective concentration (EC50) worked out at 78.6 nM.

With `Cc1cc2c(cc1OCc1ccc(F)cc1F)CN(Cc1nc3ccc(C(=O)O)cc3n1C[C@@H]1CCO1)CC2` [Compound I-029], the Emax under setting [1] worked out at 81.3%. Further, the EC50 under setting [2] was determined as 94.6 nM.

Turning to `O=C(O)c1ccc2nc(CN3CCc4cc(C(F)(F)F)c(OCc5ccc(Cl)cc5F)cc4C3=O)n(C[C@@H]3CCO3)c2c1` [Compound I-030], under setting [1], the Emax turned out to be 92.3%. Besides, under setting [2], the EC50 was 3.56 nM.

Regarding `O=C(O)c1ccc2nc(CN3CCc4cc(C(F)(F)F)c(OCc5ccc(Cl)cc5F)cc4C3=O)n(C[C@@H]3CCO3)c2n1` [Compound I-031], the Emax under setting [1] is 91%. This molecule also showed an EC50 under setting [2] of 8.92 nM.

Regarding `O=C(O)c1cc2c(cc1F)nc(CN1CCc3cc(C(F)(F)F)c(OCc4ccc(Cl)cc4F)cc3C1)n2C[C@@H]1CCO1` [Compound I-034], the maximal effect (Emax) under setting [1] was 103%. Besides, it took 8.71 nM to reach a half-maximal effect under setting [2] (EC50).

In the case of `C[C@@H]1c2cc(OCc3ccc(Cl)cc3F)c(C(F)(F)F)cc2CCN1Cc1nc2ccc(C(=O)O)cc2n1C[C@@H]1CCO1` [Compound I-036], the Emax under setting [1] was determined as 66%. The same molecule registered an EC50 under setting [2] of 99.5 nM.

For the molecule `C[C@H]1c2cc(OCc3ccc(Cl)cc3F)c(C(F)(F)F)cc2CCN1Cc1nc2ccc(C(=O)O)nc2n1C[C@@H]1CCO1` [Compound I-037], the Emax under setting [1] turned out to be 126%. For the same molecule, the midpoint of the response under setting [2], the EC50, lay at 0.663 nM.

For `CS(=O)(=O)CCn1c(CN2CCc3cc(C(F)(F)F)c(OCc4ccc(Cl)cc4F)cc3C2)nc2ccc(C(=O)O)cc21` [Compound I-039], the Emax under setting [1] is 83.3%. Also, under setting [2], a half-maximal effect (EC50) was put at 43.8 nM.

With `O=C(O)c1ccc2nc(CN3CCc4cc(C(F)(F)F)c(OCc5ccc(Cl)cc5F)cc4C3)n(C[C@@H]3CCCO3)c2c1` [Compound I-040], under setting [1], the Emax was found to be 147%. The molecule also gave a half-maximal effective concentration (EC50) under setting [2] of 37.7 nM.

On to `N#CCC1(Cn2c(CN3CCc4cc(C(F)(F)F)c(OCc5ccc(Cl)cc5F)cc4C3)nc3ccc(C(=O)O)cc32)CC1` [Compound I-041], for which, under setting [1], the Emax was 102%. In addition, the EC50 under setting [2] is 45.2 nM.

Consider `O=C(O)c1ccc2nc(CN3CCc4cc(C(F)(F)F)c(OCc5ccc(Cl)cc5F)cc4C3)n(C[C@H]3CCO3)c2c1` [Compound I-042], for which the Emax under setting [1] turned out to be 95%. Under setting [2], this molecule came in with an EC50 of 73.8 nM.

As to `O=C(O)c1ccc2nc(CN3CCc4cc(C(F)(F)F)c(OCc5ccc(Cl)cc5F)cc4C3)n(CC3(CF)CC3)c2c1` [Compound I-043], the Emax under setting [1] worked out at 109%. The same molecule returned an EC50 under setting [2] of 13.2 nM.

In the case of `COCCn1c(CN2CCc3cc(C(F)(F)F)c(OCc4ccc(Cl)cc4F)cc3C2)nc2ccc(C(=O)O)cc21` [Compound I-045], under setting [1], the Emax was 93.7%. The same molecule returned an EC50 under setting [2] of 81.5 nM.

On to `O=C(O)c1ccc2nc(Cc3ccc4cc(C(F)(F)F)c(OCc5ccc(Cl)cc5F)nc4c3)n(C[C@@H]3CCO3)c2c1` [Compound I-046], for which the Emax under setting [1] was 118%.

Take `O=C(O)c1ccc2nc(CN3CCc4cc(C(F)(F)F)c(OCc5ccc(OC(F)F)cc5F)cc4C3)n(C[C@@H]3CCO3)c2c1` [Compound I-047]: the Emax under setting [1] stood at 105%. The molecule also registered an EC50 under setting [2] of 4.3 nM.

Regarding `O=C(O)c1ccc2nc(CN3CCc4cc(C(F)(F)F)c(OCc5ccc(Cl)cc5F)cc4C3)n(CC3(C(F)F)CC3)c2c1` [Compound I-048], under setting [1], the Emax turned out to be 130%. A half-maximal response under setting [2] (EC50) required 75.4 nM.

Take `CCn1cncc1Cn1c(CN2CCc3cc(C(F)(F)F)c(OCc4ccc(Cl)cc4F)cc3C2)nc2ccc(C(=O)O)cc21` [Compound I-049]: the Emax under setting [1] stood at 95%. Also, under setting [2], the EC50 stood at 5.03 nM.

As for `Cn1nncc1Cn1c(CN2CCc3cc(C(F)(F)F)c(OCc4ccc(Cl)cc4F)cc3C2)nc2ccc(C(=O)O)cc21` [Compound I-050], the maximal response (Emax) under setting [1] stood at 67.7%. The EC50 under setting [2] is 238 nM.

Turning to `O=C(O)c1ccc2nc(CN3CCc4cc(C(F)(F)F)c(OCc5ccc(Cl)cc5F)cc4C3)n(Cc3cccnc3)c2c1` [Compound I-051], the Emax under setting [1] is 87.3%. This molecule also returned an EC50 under setting [2] of 24.2 nM.

The record behind these values is patent US20240217966A1, “PHARMACEUTICAL COMPOSITION CONTAINING GLP-1 RECEPTOR AGONIST HAVING FUSED RING” (Shionogi & Co., Ltd., priority 2021, published 2024).
